Experimental findings from ChEMBL document CHEMBL4811242, “Mechanistic selectivity investigation and 2D-QSAR study of some new antiproliferative pyrazoles and pyrazolopyridines as potential CDK2 inhibitors” (Eur J Med Chem, 2021) are described below.

In data set [1] the test system is MCF7. Briefly: Antiproliferative activity against human MCF7 cells assessed as inhibition of cell growth after 48 hrs by MTT assay. The data set is classed as functional, cell-based. The settings on record: MCF7, 48 h. (Tetrazolium assays rely on reduction of a dye to a coloured formazan, in cell work by metabolically active cells.)
The next data set addresses CDK2/Cyclin A2 (Homo sapiens, UniProt P24941). Briefly: Inhibition of CDK2/Cyclin A2 (unknown origin) after 10 mins by ADP-Glo reagent based assay. The data set is classed as protein-complex assay. For orientation: ADP-Glo first removes unused ATP, then detects ADP through luciferase.
The subject of another data set is HepG2. The data set is described as follows: Antiproliferative activity against human HepG2 cells assessed as inhibition of cell growth after 48 hrs by MTT assay. The data set is classed as functional, cell-based. Particulars: HepG2, 48 h.
Data set [2] can be described thus: Cytotoxicity against human THLE2 cells assessed as reduction in cell viability by MTT assay. The data set is classed as cell-based, THLE-2.
Data set [3] can be described thus: Selectivity index, ratio of CC50 for human THLE2 cells to IC50 for human HepG2 cells. The data set is classed as toxicity. Particulars: THLE2 cells and HepG2 cells, read-out: Ratio CC50/IC50.
The test system of data set [4] is MCF7. Briefly: Induction of apoptosis in human MCF7 cells assessed as total apoptotic cells at IC50 after 48 hrs by Annexin V-FITC/propidium iodide staining based flow cytometric analysis (reference value: 1.84 %). The data set is classed as functional. For orientation: In flow cytometry, cells or beads pass a laser one at a time.
Data set [5] deals with MCF7. The data set is described as follows: Induction of cell cycle arrest in human MCF7 cells assessed as accumulation at G2/M phase at IC50 after 48 hrs by propidium iodide staining based Flow cytometric analysis (reference value: […]%). The data set is classed as functional.
Data set [6] has as its target Cyclin-dependent kinase 4/cyclin D1 (Homo sapiens, UniProt P11802). Briefly: Inhibition of CDK4/cyclin D1 (unknown origin). The data set is classed as protein-complex assay.
The nature of data set [7]: Cytotoxicity against human MCF10A cells assessed as reduction in cell viability by MTT assay. The data set is classed as cell-based, MCF-10A.
For data set [8], the system named is MCF7. Briefly: Induction of apoptosis in human MCF7 cells assessed as fold increase in caspase-9 concentration at IC50 by ELISA. The data set is classed as functional.
For data set [9], the system named is MCF7. Briefly: Induction of cell cycle arrest in human MCF7 cells assessed as accumulation at S phase at IC50 after 48 hrs by propidium iodide staining based Flow cytometric analysis (reference value: 39.15%). The data set is classed as functional.
In data set [10] the test system is MCF7. The data set is described as follows: Induction of cell cycle arrest in human MCF7 cells assessed as accumulation at pre-G1 phase at IC50 after 48 hrs by propidium iodide staining based Flow cytometric analysis (reference value: 1.84%). The data set is classed as functional.
Data set [11] concerns MCF7. Briefly: Induction of apoptosis in human MCF7 cells assessed as late apoptotic cells at IC50 after 48 hrs by Annexin V-FITC/propidium iodide staining based flow cytometric analysis (reference value: 0.28 %). The data set is classed as functional.
A short description of data set [12]: Selectivity index, ratio of CC50 for human MCF10A cells to IC50 for human MCF7 cells. The data set is classed as toxicity. Particulars: MCF10A cells and MCF7 cells, read-out: Ratio CC50/IC50.
Data set [13] concerns the target Cyclin-dependent kinase 1/cyclin B1 (Homo sapiens, UniProt P06493). The data set is described as follows: Inhibition of CDK1/cyclin B (unknown origin). The data set is classed as protein-complex assay.
The test system of data set [14] is MCF7. The data set is described as follows: Induction of cell cycle arrest in human MCF7 cells assessed as accumulation at G0/G1 phase at IC50 after 48 hrs by propidium iodide staining based Flow cytometric analysis (reference value: 55.71%). The data set is classed as functional.
The test system of data set [15] is MCF7. The data set is described as follows: Induction of apoptosis in human MCF7 cells assessed as caspase-9 concentration at IC50 by ELISA (reference value: 2.018 +/- 0.14 ng/ml). The data set is classed as functional.
For data set [16], the target named is Cyclin-dependent kinase 7/ cyclin H (Homo sapiens, UniProt P50613). The data set is described as follows: Inhibition of CDK7/cyclin H (unknown origin). The data set is classed as protein-complex assay.
Cyclin-dependent kinase 7/ cyclin H, sequence (P51946 whole entry): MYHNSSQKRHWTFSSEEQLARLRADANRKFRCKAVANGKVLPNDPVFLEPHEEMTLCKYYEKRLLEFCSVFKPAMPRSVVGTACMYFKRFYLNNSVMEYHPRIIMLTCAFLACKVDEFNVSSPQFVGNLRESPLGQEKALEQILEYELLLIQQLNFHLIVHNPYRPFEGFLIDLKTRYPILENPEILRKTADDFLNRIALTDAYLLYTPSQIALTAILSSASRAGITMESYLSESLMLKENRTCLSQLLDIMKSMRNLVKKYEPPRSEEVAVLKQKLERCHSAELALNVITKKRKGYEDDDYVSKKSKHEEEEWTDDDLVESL
Cyclin-dependent kinase 7/ cyclin H, sequence (P50613 whole entry): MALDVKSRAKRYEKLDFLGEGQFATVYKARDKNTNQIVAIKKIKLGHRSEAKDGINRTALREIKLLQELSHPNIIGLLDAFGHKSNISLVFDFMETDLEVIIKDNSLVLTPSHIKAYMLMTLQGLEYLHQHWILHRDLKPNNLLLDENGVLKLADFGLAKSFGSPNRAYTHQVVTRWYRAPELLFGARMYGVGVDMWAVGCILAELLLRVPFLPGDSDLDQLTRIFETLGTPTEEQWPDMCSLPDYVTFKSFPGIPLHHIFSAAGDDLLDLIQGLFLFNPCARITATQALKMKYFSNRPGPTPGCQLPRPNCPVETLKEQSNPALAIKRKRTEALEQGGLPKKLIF
Data set [17] concerns MCF7. Briefly: Induction of apoptosis in human MCF7 cells assessed as early apoptotic cells at IC50 after 48 hrs by Annexin V-FITC/propidium iodide staining based flow cytometric analysis (reference value: 0.57 %). The data set is classed as functional.

Cyclin-dependent kinase 1/cyclin B1, sequence (P06493 whole entry): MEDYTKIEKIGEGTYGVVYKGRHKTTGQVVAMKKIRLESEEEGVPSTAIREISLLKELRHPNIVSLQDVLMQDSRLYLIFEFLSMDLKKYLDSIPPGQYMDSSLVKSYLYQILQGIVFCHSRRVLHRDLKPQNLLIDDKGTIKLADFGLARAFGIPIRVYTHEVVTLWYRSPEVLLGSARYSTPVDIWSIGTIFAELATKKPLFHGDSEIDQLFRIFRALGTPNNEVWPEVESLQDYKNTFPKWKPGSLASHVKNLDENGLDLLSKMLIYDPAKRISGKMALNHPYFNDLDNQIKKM
Cyclin-dependent kinase 1/cyclin B1, sequence (P14635 whole entry, further chain): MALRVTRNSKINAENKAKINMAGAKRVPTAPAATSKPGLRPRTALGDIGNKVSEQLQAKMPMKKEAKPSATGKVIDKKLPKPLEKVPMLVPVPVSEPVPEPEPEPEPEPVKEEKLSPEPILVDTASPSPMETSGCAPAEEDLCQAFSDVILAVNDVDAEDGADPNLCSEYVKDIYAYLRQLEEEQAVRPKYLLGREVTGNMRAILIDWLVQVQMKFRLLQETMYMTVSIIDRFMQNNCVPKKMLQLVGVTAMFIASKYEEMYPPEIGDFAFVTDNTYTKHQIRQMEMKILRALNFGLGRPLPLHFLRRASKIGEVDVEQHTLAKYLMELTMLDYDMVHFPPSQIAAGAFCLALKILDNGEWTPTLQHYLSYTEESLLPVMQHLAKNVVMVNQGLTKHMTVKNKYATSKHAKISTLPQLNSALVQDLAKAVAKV
Cyclin-dependent kinase 4/cyclin D1, sequence (P11802 whole entry): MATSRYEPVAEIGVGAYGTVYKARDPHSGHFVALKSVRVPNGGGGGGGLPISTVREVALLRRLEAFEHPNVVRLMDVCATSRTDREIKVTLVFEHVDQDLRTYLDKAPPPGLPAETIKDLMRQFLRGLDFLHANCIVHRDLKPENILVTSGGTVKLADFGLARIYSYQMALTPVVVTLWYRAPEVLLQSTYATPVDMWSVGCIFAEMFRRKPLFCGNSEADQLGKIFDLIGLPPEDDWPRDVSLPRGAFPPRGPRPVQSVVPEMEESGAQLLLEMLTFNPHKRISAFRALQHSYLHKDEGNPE
Cyclin-dependent kinase 4/cyclin D1, sequence (P24385 whole entry, further chain): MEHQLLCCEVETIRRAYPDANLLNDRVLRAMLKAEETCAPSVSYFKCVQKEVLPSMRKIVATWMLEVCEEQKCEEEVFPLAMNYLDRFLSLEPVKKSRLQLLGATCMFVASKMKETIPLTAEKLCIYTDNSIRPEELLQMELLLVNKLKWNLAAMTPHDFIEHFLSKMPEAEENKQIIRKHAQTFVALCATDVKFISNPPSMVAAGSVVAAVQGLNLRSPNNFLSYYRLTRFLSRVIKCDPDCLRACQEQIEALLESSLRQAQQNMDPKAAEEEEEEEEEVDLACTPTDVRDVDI

In the case of `Cc1ccc(C(=O)C=CNc2cc(-c3ccccc3)nn2-c2ccccc2)cc1`, the IC50 (as a rule, the point on the concentration scale where inhibition reaches its midpoint) worked out at 30.2 µM in the data set with MCF7 [1], 0.0632 µM against CDK2/Cyclin A2 and 7.32 µM in the data set on HepG2.

In the case of `O=C(C=CNc1cc(-c2ccccc2)nn1-c1ccccc1)c1ccc(F)cc1`, the IC50 was 9.18 µM in the data set on MCF7 [1], 0.133 µM on CDK2/Cyclin A2 and 59.9 µM in the data set with HepG2.

Regarding `O=C(C=CNc1cc(-c2ccccc2)nn1-c1ccccc1)c1cccs1`, the 50% inhibitory concentration (IC50) amounted to 15.4 µM in the data set with MCF7 [1], 0.201 µM against CDK2/Cyclin A2 and 2.42 µM in the data set on HepG2. For the same compound, the CC50 (usually the concentration giving 50% cytotoxicity) in data set [2] was found to be 19.9 µM. Further, the selectivity ratio in [3] stood at 8.22.

Turning to `Brc1ccc(-c2ccnc3c2c(-c2ccccc2)nn3-c2ccccc2)cc1`, the IC50 with MCF7 [1] is 13.3 µM; against CDK2/Cyclin A2, 0.0807 µM; with HepG2, 49.9 µM.

Consider `O=C(C=CNc1cc(-c2ccccc2)nn1-c1ccccc1)c1ccc(Br)cc1`, for which the IC50 in the data set with MCF7 [1] came to 21.7 µM; at CDK2/Cyclin A2 it was 0.517 µM; in the data set on HepG2, 8.81 µM.

As to `COc1ccc(-c2nc3c(c(-c4ccccc4)nn3-c3ccccc3)c(-c3ccc(N4CCOCC4)cc3)c2C#N)cc1`, the IC50 turned out to be 0.93 µM in the data set with MCF7 [1]; 21.2 µM in [6]; 0.221 µM on CDK2/Cyclin A2; 0.718 µM in data set [13]; 8.13 µM with HepG2; 0.318 µM in [16]. In addition, the Activity in the data set on MCF7 [4] is recorded as 24.4%; in the data set with MCF7 [5] it was 21.2%; in the data set with MCF7 [9] it was 34.42%; in the data set with MCF7 [10] it was 24.36%; with MCF7 [11] it was 9.86%; in the data set with MCF7 [14] it was 44.38%. Also, the Activity with MCF7 [15] came to 20.32 ng/mL; with MCF7 [17] it was 9.36%. Moreover, the Ki (in general, a dissociation constant, usually derived from enzyme kinetics or from competition with a known ligand) was 11.6 µM in [6], 0.131 µM at CDK2/Cyclin A2, 0.437 µM in data set [13] and 0.203 µM in [16]. The CC50 in data set [7] is 55.7 µM. In addition, the “fold change (FC)” value in the data set on MCF7 [8] stood at 9. Also, the selectivity ratio in [12] came out at 59.9.

As to `O=C(C=CNc1cc(-c2ccccc2)nn1-c1ccccc1)c1ccc(Cl)cc1`, the results for the IC50 in the data set with MCF7 [1], at CDK2/Cyclin A2 and in the data set on HepG2 were 8.07 µM, 0.122 µM and 41.2 µM, respectively.

Turning to `CN1CCN(c2ccc(-c3c(C#N)c(-c4ccc(Cl)cc4)nc4c3c(-c3ccccc3)nn4-c3ccccc3)cc2)CC1`, the IC50 in the data set with MCF7 [1] is 2.71 µM; against CDK2/Cyclin A2, 0.129 µM; in the data set with HepG2, 14.6 µM.

As for `Clc1ccc(-c2ccnc3c2c(-c2ccccc2)nn3-c2ccccc2)cc1`, the figures for the IC50 with MCF7 [1], at CDK2/Cyclin A2 and in the data set on HepG2 were 61.1 µM, 0.386 µM and 61.1 µM, respectively.

As for `COc1ccc(-c2ccnc3c2c(-c2ccccc2)nn3-c2ccccc2)cc1`, the half-inhibitory concentration (IC50) was 28.7 µM with MCF7 [1], 0.27 µM on CDK2/Cyclin A2 and 6.59 µM in the data set on HepG2.

Take `COc1ccc(-c2nc3c(c(-c4ccccc4)nn3-c3ccccc3)c(-c3ccc(N4CCCCC4)cc3)c2C#N)cc1`: the results for the IC50 with MCF7 [1], against CDK2/Cyclin A2 and with HepG2 were 2.76 µM, 0.0851 µM and 12.5 µM, respectively.

As to `N#Cc1c(-c2ccccc2)nc2c(c(-c3ccccc3)nn2-c2ccccc2)c1-c1ccc(N2CCCCC2)cc1`, the IC50 in the data set with MCF7 [1] worked out at 27 µM; against CDK2/Cyclin A2 it was 0.329 µM; in the data set with HepG2, 30.9 µM.

Turning to `O=C(C=CNc1cc(-c2ccccc2)nn1-c1ccccc1)c1ccccc1`, the IC50 turned out to be 9.65 µM with MCF7 [1], 0.318 µM on CDK2/Cyclin A2 and 2.66 µM with HepG2. Further, in [2], the CC50 came to 53.4 µM. Further, the selectivity ratio in data set [3] came to 20.1.

For `N#Cc1c(-c2ccc(Cl)cc2)nc2c(c(-c3ccccc3)nn2-c2ccccc2)c1-c1ccc(N2CCCCC2)cc1`, the IC50 in the data set on MCF7 [1] was determined as 10.6 µM; at CDK2/Cyclin A2 it was 0.195 µM; in the data set on HepG2, 3.21 µM. Also, the CC50 in [2] is 12.5 µM. Also, the selectivity ratio in data set [3] was determined as 3.89.

As for `Cc1ccc(-c2ccnc3c2c(-c2ccccc2)nn3-c2ccccc2)cc1`, the half-inhibitory concentration (IC50) was determined as 5.59 µM with MCF7 [1], 0.0819 µM at CDK2/Cyclin A2 and 10.7 µM with HepG2.

For `c1ccc(-c2ccnc3c2c(-c2ccccc2)nn3-c2ccccc2)cc1`, the IC50 was 28.2 µM with MCF7 [1], 0.348 µM at CDK2/Cyclin A2 and 3.21 µM with HepG2. Also, in [2], the CC50 worked out at 34.2 µM. The selectivity ratio in data set [3] was 10.7.

With `CN1CCN(c2ccc(-c3c(C#N)c(-c4ccccc4)nc4c3c(-c3ccccc3)nn4-c3ccccc3)cc2)CC1`, the figures for the IC50 in the data set with MCF7 [1], against CDK2/Cyclin A2 and in the data set on HepG2 were 14.3 µM, 0.161 µM and 3.14 µM, respectively. Also, in [2], the CC50 was found to be 15.1 µM. Besides, the selectivity ratio in data set [3] was determined as 4.8.

Regarding `N#Cc1c(-c2ccccc2)nc2c(c(-c3ccccc3)nn2-c2ccccc2)c1-c1ccc(N2CCOCC2)cc1`, the half-maximal inhibitory concentration (IC50) with MCF7 [1] was determined as 3.34 µM; against CDK2/Cyclin A2, 0.096 µM; with HepG2 it was 10.5 µM.

For `N#Cc1c(-c2ccc(Cl)cc2)nc2c(c(-c3ccccc3)nn2-c2ccccc2)c1-c1ccc(N2CCOCC2)cc1`, the IC50 in the data set on MCF7 [1] stood at 3.65 µM; against CDK2/Cyclin A2 it was 0.644 µM; in the data set with HepG2, 21.5 µM.

For `c1ccc(-c2nn(-c3ccccc3)c3nccc(-c4cccs4)c23)cc1`, the IC50 was determined as 39.3 µM in the data set on MCF7 [1], 0.0568 µM against CDK2/Cyclin A2 and 39.3 µM in the data set on HepG2.

Regarding `COc1ccc(C(=O)C=CNc2cc(-c3ccccc3)nn2-c2ccccc2)cc1`, the IC50 in the data set on MCF7 [1] is 1.29 µM; in data set [6], 16.7 µM; on CDK2/Cyclin A2, 0.042 µM; in data set [13], 0.955 µM; in the data set on HepG2 it was 2.03 µM; in data set [16] it was 0.326 µM. Moreover, the Activity stood at 36.51% in the data set on MCF7 [4]; 3.47% with MCF7 [5]; 59.24% with MCF7 [9]; 36.51% in the data set on MCF7 [10]; 20.64% with MCF7 [11]; 37.29% in the data set with MCF7 [14]. Further, the figures for the Activity with MCF7 [15] and in the data set with MCF7 [17] were 18.96 ng/mL and 2.69%, respectively. The Ki was 9.12 µM in data set [6], 0.025 µM on CDK2/Cyclin A2, 0.581 µM in data set [13] and 0.208 µM in [16]. The figures for the CC50 in data set [7] and in data set [2] were 16.9 µM and 35.2 µM, respectively. The “fold change (FC)” value with MCF7 [8] is recorded as 9. For the same compound, the figures for the selectivity ratio in [12] and in data set [3] were 13.1 and 17.3, respectively.

On to `COc1cccc2c1C(=O)c1c(O)c3c(c(O)c1C2=O)C[C@@](O)(C(=O)CO)C[C@@H]3O[C@H]1C[C@H](N)[C@H](O)[C@H](C)O1` [DOXORUBICIN], for which the figures for the IC50 in the data set on MCF7 [1] and with HepG2 were 1.88 µM and 7.3 µM, respectively. Besides, the CC50 in [7] is 13.9 µM; in data set [2], 12.7 µM.
